Test results as given in PubChem BioAssay AID1963978 (Molecular Pharmacology Branch, DTP, NCI, 2024).
Values joined by “and” are separate entries in the source; they are usually repeats but may differ in a detail not shown here. Identical values can stand only once.

System: 616215-338-R-J1-PDC spheroids with HUVEC/MSC, viability
Test: Anticancer human tumor 616215-338-R-J1-PDC patient-derived colon adenocarcinoma cell line growth inhibition [PI3K]
Conditions: for viability, T/C: stronger effect = lower value
How it was run: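 Tumor cells were combined with HUVEC and MSCs into spheroids, then dosed with PI3K-inhibitor combinations over half-log ranges capped near clinical Cmax or 10 microM.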

[1] = curve of first compound, second compound 0.0316 µM
[2] = curve of first compound, second compound 0.1 µM
[3] = curve of first compound, second compound 0.316 µM
[4] = curve of first compound, second compound 1 µM
[5] = curve of first compound, second compound 3.16 µM
[6] = curve of first compound, second compound 10 µM
[7] = second compound 0.0316 µM, first compound 0.0316 µM
[8] = second compound 0.0316 µM, first compound 0.1 µM
[9] = second compound 0.1 µM, first compound 0.0316 µM
[10] = second compound 0.1 µM, first compound 0.1 µM
[11] = second compound 0.316 µM, first compound 0.0316 µM
[12] = second compound 0.316 µM, first compound 0.1 µM
[13] = second compound 1 µM, first compound 0.0316 µM
[14] = second compound 1 µM, first compound 0.1 µM
[15] = second compound 3.16 µM, first compound 0.0316 µM
[16] = second compound 3.16 µM, first compound 0.1 µM
[17] = second compound 10 µM, first compound 0.0316 µM
[18] = second compound 10 µM, first compound 0.1 µM
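Note: spheroids exposed to agents for seven days before the viability read.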

Cn1cnc2c(F)c(Nc3ccc(Br)cc3Cl)c(C(=O)NOCCO)cc21 + CC(Nc1ccc2c(c1)OCCn1cc(N3C(=O)OCC3C(F)F)nc1-2)C(N)=O
IC50 (curve of first compound, second compound 0.00316 µM): 1400 nM | IC50 (curve of first compound, second compound 0.01 µM): 1160 nM | IC50 [1]: 764 nM | IC50 [2]: 982 nM | IC50 [3]: 495 nM | IC50 [4]: 408 nM | viability, T/C (second compound 0.00316 µM, first compound 0.00949 µM): 96.5% | viability, T/C (second compound 0.00316 µM, first compound 0.03 µM): 98.9% | viability, T/C (second compound 0.00316 µM, first compound 0.0949 µM): 83.7% | viability, T/C (second compound 0.00316 µM, first compound 0.3 µM): 76% | viability, T/C (second compound 0.00316 µM, first compound 0.949 µM): 56.8% | viability, T/C (second compound 0.00316 µM, first compound 3 µM): 36.5% | viability, T/C (second compound 0.01 µM, first compound 0.00949 µM): 94.6% | viability, T/C (second compound 0.01 µM, first compound 0.03 µM): 91% | viability, T/C (second compound 0.01 µM, first compound 0.0949 µM): 87.8% | viability, T/C (second compound 0.01 µM, first compound 0.3 µM): 71.8% | viability, T/C (second compound 0.01 µM, first compound 0.949 µM): 54.7% | viability, T/C (second compound 0.01 µM, first compound 3 µM): 31.4% | viability, T/C (second compound 0.0316 µM, first compound 0.00949 µM): 96.1% | viability, T/C (second compound 0.0316 µM, first compound 0.03 µM): 110% | viability, T/C (second compound 0.0316 µM, first compound 0.0949 µM): 77.2% | viability, T/C (second compound 0.0316 µM, first compound 0.3 µM): 77.5% | viability, T/C (second compound 0.0316 µM, first compound 0.949 µM): 38.3% | viability, T/C (second compound 0.0316 µM, first compound 3 µM): 38.8% | viability, T/C (second compound 0.1 µM, first compound 0.00949 µM): 106% | viability, T/C (second compound 0.1 µM, first compound 0.03 µM): 86.9% | viability, T/C (second compound 0.1 µM, first compound 0.0949 µM): 87.2% | viability, T/C (second compound 0.1 µM, first compound 0.3 µM): 65.2% | viability, T/C (second compound 0.1 µM, first compound 0.949 µM): 48.9% | viability, T/C (second compound 0.1 µM, first compound 3 µM): 37% | viability, T/C (second compound 0.316 µM, first compound 0.00949 µM): 109% | viability, T/C (second compound 0.316 µM, first compound 0.03 µM): 94.8% | viability, T/C (second compound 0.316 µM, first compound 0.0949 µM): 79.4% | viability, T/C (second compound 0.316 µM, first compound 0.3 µM): 57.4% | viability, T/C (second compound 0.316 µM, first compound 0.949 µM): 39% | viability, T/C (second compound 0.316 µM, first compound 3 µM): 35.9% | viability, T/C (second compound 1 µM, first compound 0.00949 µM): 106% | viability, T/C (second compound 1 µM, first compound 0.03 µM): 85.1% | viability, T/C (second compound 1 µM, first compound 0.0949 µM): 79.7% | viability, T/C (second compound 1 µM, first compound 0.3 µM): 51.6% | viability, T/C (second compound 1 µM, first compound 0.949 µM): 37.5% | viability, T/C (second compound 1 µM, first compound 3 µM): 26.4%

CCCS(=O)(=O)Nc1ccc(F)c(C(=O)c2c[nH]c3ncc(-c4ccc(Cl)cc4)cc23)c1F
viability, T/C (compound 0.0316 µM): 95.5% [middle of 4 runs] | viability, T/C (compound 0.1 µM): 93.5% [middle of 4 runs] | viability, T/C (compound 0.316 µM): 97.2% [middle of 4 runs] | viability, T/C (compound 1 µM): 92.5% [middle of 4 runs] | viability, T/C (compound 10 µM): 2.66% [middle of 4 runs] | IC50 (curve of compound): 4340 nM and 3870 nM and 5170 nM

CC(C)n1nc(-c2ccc3oc(N)nc3c2)c2c(N)ncnc21 + Cc1nc(NC(=O)N2CCCC2C(N)=O)sc1-c1ccnc(C(C)(C)C(F)(F)F)c1
IC50 [1]: > 100 nM | IC50 [2]: > 100 nM | IC50 [3]: > 100 nM | IC50 [4]: > 100 nM | IC50 [5]: > 100 nM | IC50 [6]: 53.2 nM | viability, T/C (second compound 0.0316 µM, first compound 0.000316 µM): 100% | viability, T/C (second compound 0.0316 µM, first compound 0.001 µM): 88.7% | viability, T/C (second compound 0.0316 µM, first compound 0.00316 µM): 93.9% | viability, T/C (second compound 0.0316 µM, first compound 0.01 µM): 97.2% | viability, T/C [7]: 105% | viability, T/C [8]: 93.2% | viability, T/C (second compound 0.1 µM, first compound 0.000316 µM): 98.5% | viability, T/C (second compound 0.1 µM, first compound 0.001 µM): 106% | viability, T/C (second compound 0.1 µM, first compound 0.00316 µM): 96.8% | viability, T/C (second compound 0.1 µM, first compound 0.01 µM): 90.8% | viability, T/C [9]: 114% | viability, T/C [10]: 87.1% | viability, T/C (second compound 0.316 µM, first compound 0.000316 µM): 91.2% | viability, T/C (second compound 0.316 µM, first compound 0.001 µM): 91.2% | viability, T/C (second compound 0.316 µM, first compound 0.00316 µM): 91.4% | viability, T/C (second compound 0.316 µM, first compound 0.01 µM): 96.2% | viability, T/C [11]: 111% | viability, T/C [12]: 82.1% | viability, T/C (second compound 1 µM, first compound 0.000316 µM): 102% | viability, T/C (second compound 1 µM, first compound 0.001 µM): 100% | viability, T/C (second compound 1 µM, first compound 0.00316 µM): 102% | viability, T/C (second compound 1 µM, first compound 0.01 µM): 99.5% | viability, T/C [13]: 106% | viability, T/C [14]: 79.1% | viability, T/C (second compound 3.16 µM, first compound 0.000316 µM): 99.7% | viability, T/C (second compound 3.16 µM, first compound 0.001 µM): 102% | viability, T/C (second compound 3.16 µM, first compound 0.00316 µM): 91% | viability, T/C (second compound 3.16 µM, first compound 0.01 µM): 95.4% | viability, T/C [15]: 83.8% | viability, T/C [16]: 56.7% | viability, T/C (second compound 10 µM, first compound 0.000316 µM): 94.4% | viability, T/C (second compound 10 µM, first compound 0.001 µM): 85.9% | viability, T/C (second compound 10 µM, first compound 0.00316 µM): 86.2% | viability, T/C (second compound 10 µM, first compound 0.01 µM): 80.2% | viability, T/C [17]: 56.7% | viability, T/C [18]: 41.4%

Cn1nccc1Nc1nccc(-c2ccn(C(CO)c3ccc(Cl)c(F)c3)c(=O)c2)n1 (configuration not stated) + Cc1nc(NC(=O)N2CCCC2C(N)=O)sc1-c1ccnc(C(C)(C)C(F)(F)F)c1
IC50 [1]: 3460 nM | IC50 [2]: 2980 nM | IC50 [3]: 2270 nM | IC50 [4]: 1580 nM | IC50 [5]: 739 nM | IC50 [6]: 552 nM | viability, T/C [7]: 106% | viability, T/C [8]: 81.5% | viability, T/C (second compound 0.0316 µM, first compound 0.316 µM): 83.8% | viability, T/C (second compound 0.0316 µM, first compound 1 µM): 68.9% | viability, T/C (second compound 0.0316 µM, first compound 3.16 µM): 47.8% | viability, T/C (second compound 0.0316 µM, first compound 10 µM): 37.1% | viability, T/C [9]: 97.2% | viability, T/C [10]: 97.9% | viability, T/C (second compound 0.1 µM, first compound 0.316 µM): 86.2% | viability, T/C (second compound 0.1 µM, first compound 1 µM): 58.3% | viability, T/C (second compound 0.1 µM, first compound 3.16 µM): 56.6% | viability, T/C (second compound 0.1 µM, first compound 10 µM): 33.1% | viability, T/C [11]: 96.7% | viability, T/C [12]: 86% | viability, T/C (second compound 0.316 µM, first compound 0.316 µM): 87.6% | viability, T/C (second compound 0.316 µM, first compound 1 µM): 72.1% | viability, T/C (second compound 0.316 µM, first compound 3.16 µM): 40.7% | viability, T/C (second compound 0.316 µM, first compound 10 µM): 29.1% | viability, T/C [13]: 92.4% | viability, T/C [14]: 97.8% | viability, T/C (second compound 1 µM, first compound 0.316 µM): 67.8% | viability, T/C (second compound 1 µM, first compound 1 µM): 57.7% | viability, T/C (second compound 1 µM, first compound 3.16 µM): 42.1% | viability, T/C (second compound 1 µM, first compound 10 µM): 26.8% | viability, T/C [15]: 96% | viability, T/C [16]: 89.3% | viability, T/C (second compound 3.16 µM, first compound 0.316 µM): 68% | viability, T/C (second compound 3.16 µM, first compound 1 µM): 39.3% | viability, T/C (second compound 3.16 µM, first compound 3.16 µM): 32.4% | viability, T/C (second compound 3.16 µM, first compound 10 µM): 13.9% | viability, T/C [17]: 94.2% | viability, T/C [18]: 83.9% | viability, T/C (second compound 10 µM, first compound 0.316 µM): 70.2% | viability, T/C (second compound 10 µM, first compound 1 µM): 29.7% | viability, T/C (second compound 10 µM, first compound 3.16 µM): 5.53% | viability, T/C (second compound 10 µM, first compound 10 µM): 1.47%
